Experiments:
M. restricta MYA-4611 [1] = assay: M. restricta growth in liquid MLNB media (Example 3); assay type: cell-based
Experimental: (§1) At appropriate time intervals (0 h, 24 h, 48 h, 72 h, and 168 h) 1 mL aliquots of the cell suspension were withdrawn and plated on MLNA. All the experiments were performed in duplicate.

M. globosa [2] = assay: M. globosa growth in liquid MLNB media (Example 3); assay type: cell-based
Experimental: as §1

M. globosa [3] = assay: M. globosa growth on solid media with composition and individual component supplementation (Example 3); settings: individual component supplementation, after 5 days
M. restricta MYA-4611 [4] = assay: M. restricta growth on solid media with composition and individual component supplementation (Example 3); settings: individual component supplementation, after 5 days

In the case of `N[C@@H](CC(=O)O)C(=O)O` [L-Asp, L-aspartic acid], the “M. restricta growth in liquid MLNB media” value (M. restricta MYA-4611 [1]; 0.46% L-Asp, t = 24 h) is reported as 15 cfu/mL, the “M. restricta growth in liquid MLNB media” value (M. restricta MYA-4611 [1]; 0.46% L-Asp, t = 48 h) is reported as 11 cfu/mL and the “M. restricta growth in liquid MLNB media” value (M. restricta MYA-4611 [1]; 0.46% L-Asp, t = 72 h) is reported as 10 cfu/mL. For the same compound, the “M. restricta growth in liquid MLNB media” value (M. restricta MYA-4611 [1]; 0.46% L-Asp, t = 168 h) was 14 cfu/mL, the “M. globosa growth in liquid MLNB media” value (M. globosa [2]; 0.46% L-Asp, t = 24 h) was 14 cfu/mL and the “M. globosa growth in liquid MLNB media” value (M. globosa [2]; 0.46% L-Asp, t = 48 h) was 10 cfu/mL. The “M. globosa growth in liquid MLNB media” value (M. globosa [2]; 0.46% L-Asp, t = 72 h) was 6 cfu/mL, the “M. globosa growth in liquid MLNB media” value (M. globosa [2]; 0.46% L-Asp, t = 168 h) was 1 cfu/mL and the “growth on solid media” value (M. globosa [3]; 0.46% L-Asp) was “support some growth”. The “growth on solid media” value (M. restricta MYA-4611 [4]; 0.46% L-Asp) was “support some growth”.

`NC(=O)c1cccnc1` [Niacinamide, niacinamide, reference compound] was tested, and the “M. restricta growth in liquid MLNB media” value (M. restricta MYA-4611 [1]; 0.5% Niacinamide, t = 24 h) was 20 cfu/mL, the “M. restricta growth in liquid MLNB media” value (M. restricta MYA-4611 [1]; 0.5% Niacinamide, t = 48 h) was 5 cfu/mL and the “M. restricta growth in liquid MLNB media” value (M. restricta MYA-4611 [1]; 0.5% Niacinamide, t = 72 h) was 0 cfu/mL. For the same compound, the “M. restricta growth in liquid MLNB media” value (M. restricta MYA-4611 [1]; 0.5% Niacinamide, t = 168 h) was 0 cfu/mL, the “M. globosa growth in liquid MLNB media” value (M. globosa [2]; 0.5% Niacinamide, t = 24 h) was 2 cfu/mL and the “M. globosa growth in liquid MLNB media” value (M. globosa [2]; 0.5% Niacinamide, t = 48 h) was 0 cfu/mL. For the same compound, the “M. globosa growth in liquid MLNB media” value (M. globosa [2]; 0.5% Niacinamide, t = 72 h) was 0 cfu/mL, the “M. globosa growth in liquid MLNB media” value (M. globosa [2]; 0.5% Niacinamide, t = 168 h) was 0 cfu/mL and the “growth on solid media” value (M. globosa [3]; 0.5% niacinamide) was “support some growth”. For the same compound, the “growth on solid media” value (M. restricta MYA-4611 [4]; 0.5% niacinamide) was “support some growth”.

In the case of conjugated linoleic acid [CLA], the “M. restricta growth in liquid MLNB media” value (M. restricta MYA-4611 [1]; 1.5% CLA, t = 24 h) is reported as 7 cfu/mL, the “M. restricta growth in liquid MLNB media” value (M. restricta MYA-4611 [1]; 1.5% CLA, t = 48 h) is reported as 0 cfu/mL and the “M. restricta growth in liquid MLNB media” value (M. restricta MYA-4611 [1]; 1.5% CLA, t = 72 h) is reported as 0 cfu/mL. The “M. restricta growth in liquid MLNB media” value (M. restricta MYA-4611 [1]; 1.5% CLA, t = 168 h) was 0 cfu/mL, the “M. globosa growth in liquid MLNB media” value (M. globosa [2]; 1.5% CLA, t = 24 h) was 2 cfu/mL and the “M. globosa growth in liquid MLNB media” value (M. globosa [2]; 1.5% CLA, t = 48 h) was 0 cfu/mL. The “M. globosa growth in liquid MLNB media” value (M. globosa [2]; 1.5% CLA, t = 72 h) was 0 cfu/mL, the “M. globosa growth in liquid MLNB media” value (M. globosa [2]; 1.5% CLA, t = 168 h) was 0 cfu/mL and the “growth on solid media” value (M. globosa [3]; 1.5% CLA) was “support some growth”. The “growth on solid media” value (M. restricta MYA-4611 [4]; 1.5% CLA) was “support some growth”.

— patent US10350187B2, “Methods and composition for suppression of pathogenic bacterial growth, fungal growth, or microbial growth in or on skin” (priority 2017, dated 2019)
